Where two headings read alike, the source gives them in different places.
Test system: rat
Assay: Randall-Selitto test in rats (Carrageenin-induced oedema, model for inflammatory pain), with isobolographic analysis of fixed ratio combinations
Type: in vivo
Conditions: for ED50: Rattus norvegicus, confidence interval in brackets; for timepoint of peak effect: substance applied alone, A i.v., NSAIDs i.p.
Procedure: The weight ratios of the components (a) and (b) that will lead to a supra-additive effect (synergistic effect) of the inventive pharmaceutical composition may be determined via the test of Randall and Selitto as described in Arch. Int. Pharmacodyn., 1957, 111: 409 to 419, which is a model for inflammatory pain. The respective part of the literature is hereby incorporated by reference and forms part of the present disclosure.
By means of injection of 0.1 ml of Carrageenin-suspension ventrally into a hind paw of a rat an oedema is induced, on which pain is generated 4 hours later by continuously increasing pressure with a stamp (2 mm tip diameter). The antinociceptive and antihyperalgesic activity of the tested substance is determined at different points in time after administration of the substance. The measured value to be determined and at the same time also the end point of the pain test is the pressure at which the vocalisation reaction of the rat occurs. The percentage maximum possible effect (% MPE) is calculated. The maximum pressure of the stamp is 250 g. The group size is n=10.
The interactions studies presented herein were performed using equieffective doses of the two components, calculated from the ratio of the respective ED50 values of the components if administered alone.
The application route was intravenous (i.v.) for (1R,2R)-3-(3-Dimethylamino-1-ethyl-2-methyl-propyl)-phenol (A) and intraperitoneal (i.p.) for the NSAIDs Diclofenac-sodium and Ibuprofen. […] According to their respective timepoint of peak effect, (1R,2R)-3-(3-Dimethylamino-1-ethyl-2-methyl-propyl)-phenol was applied 15 min and Diclofenac-Sodium and Ibuprofen 30 min before timepoint of measurement of the interaction-experiments (i. e. Diclofenac-Sodium or Ibuprofen were applied 15 min before (1R,2R)-3-(3-Dimethylamino-1-ethyl-2-methyl-propyl)-phenol, respectively). Thus, the time point of ED50 calculation of the combination corresponds to the timepoint of the peak effect of the respective compound.
The application route was intravenous (i.v.) for (1R,2R)-3-(3-Dimethylamino-1-ethyl-2-methyl-propyl)-phenol (A) and intraperitoneal (i.p.) for the NSAIDs (+)-Naproxen, Ketoprofen and Metamizol-Sodium. […] According to their respective timepoint of peak effect, (1R,2R)-3-(3-Dimethylamino-1-ethyl-2-methyl-propyl)-phenol was applied 15 min and (+)-Naproxen, Ketoprofen and Metamizol-Sodium 45 min before timepoint of measurement of the interaction-experiments (i. e. (+)-Naproxen, Ketoprofen and Metamizol-Sodium were applied 30 min before (1R,2R)-3-(3-Dimethylamino-1-ethyl-2-methyl-propyl)-phenol, respectively). Thus, the time point of ED50 calculation of the combination corresponds to the timepoint of the peak effect of the respective compound.

[1] = ip, 0.5 h, study A, i.p., 30 min p. appl. (peak effect), read-out: ED50 of the NSAID applied alone
[2] = ip, 0.75 h, study B, i.p., 45 min p. appl. (peak effect), read-out: ED50 of the NSAID applied alone

CC[C@@H](c1cccc(O)c1)[C@@H](C)CN(C)C [A, (1R,2R)-3-(3-Dimethylamino-1-ethyl-2-methyl-propyl)-phenol]
ED50 (iv, 0.25 h, read-out: ED50 of A applied alone, study A, i.v., 15 min p. appl. (peak effect)): 1.88 mg/kg | ED50 (iv, 0.25 h, read-out: ED50 of A applied alone, study B, i.v., 15 min p. appl. (peak effect)): 1.88 mg/kg

O=C(O)Cc1ccccc1Nc1c(Cl)cccc1Cl [Diclofenac-Sodium]
ED50 [1]: 145 mg/kg | analgesic effect of the NSAID applied alone (i.p.): dose-dependent analgesic effects | timepoint of peak effect: 30 min p. appl.

CC(C)Cc1ccc(C(C)C(=O)O)cc1 (centres unmarked) [Ibuprofen, 2-(4-Isobutylphenyl)propanoic acid]
ED50 [1]: 139 mg/kg | analgesic effect of the NSAID applied alone (i.p.): dose-dependent analgesic effects | timepoint of peak effect: 30 min p. appl.

CC(C(=O)O)c1cccc(C(=O)c2ccccc2)c1 (centres unmarked) [Ketoprofen, 2-(3-Benzoylphenyl)propanoic acid]
ED50 [2]: 224 mg/kg | analgesic effect of the NSAID applied alone (i.p.): dose-dependent analgesic effects | timepoint of peak effect: 45 min p. appl.

CC1C(N(C)CS(=O)(=O)[O-])C(=O)N(c2ccccc2)N1C.[Na+] (centres unmarked) [Metamizol-Sodium, Sodium ((1,5-dimethyl-3-oxo-2-phenylpyrazolidin-4-yl)(methyl)amino)methanesulfonate]
ED50 [2]: 88.1 mg/kg | analgesic effect of the NSAID applied alone (i.p.): dose-dependent analgesic effects | timepoint of peak effect: 45 min p. appl.
